Laboratory results published in ChEMBL document CHEMBL5653615 (J Biol Chem, 2013).

How the values were obtained:
[1] = target: Homeodomain-interacting protein kinase 1 (Homo sapiens) (UniProt Q86Z02); experiment: Inhibition of human HIPK1 at 18.6 nM by HotSpot assay relative to control
[2] = target: Mitogen-activated protein kinase kinase kinase 10 (Homo sapiens) (UniProt Q02779); experiment: Inhibition of human MAP3K10 at 18.6 nM by HotSpot assay relative to control
[3] = target: Serine/threonine-protein kinase B-raf (Homo sapiens) (UniProt P15056); experiment: Inhibition of human BRAF at 1.82 nM by HotSpot assay relative to control
[4] = target: T1, Serine/threonine-protein kinase DCLK2 (Homo sapiens) (UniProt Q8N568); experiment: Inhibition of human DCAMKL2 at 1.82 nM by HotSpot assay relative to control
T1 sequence (whole entry): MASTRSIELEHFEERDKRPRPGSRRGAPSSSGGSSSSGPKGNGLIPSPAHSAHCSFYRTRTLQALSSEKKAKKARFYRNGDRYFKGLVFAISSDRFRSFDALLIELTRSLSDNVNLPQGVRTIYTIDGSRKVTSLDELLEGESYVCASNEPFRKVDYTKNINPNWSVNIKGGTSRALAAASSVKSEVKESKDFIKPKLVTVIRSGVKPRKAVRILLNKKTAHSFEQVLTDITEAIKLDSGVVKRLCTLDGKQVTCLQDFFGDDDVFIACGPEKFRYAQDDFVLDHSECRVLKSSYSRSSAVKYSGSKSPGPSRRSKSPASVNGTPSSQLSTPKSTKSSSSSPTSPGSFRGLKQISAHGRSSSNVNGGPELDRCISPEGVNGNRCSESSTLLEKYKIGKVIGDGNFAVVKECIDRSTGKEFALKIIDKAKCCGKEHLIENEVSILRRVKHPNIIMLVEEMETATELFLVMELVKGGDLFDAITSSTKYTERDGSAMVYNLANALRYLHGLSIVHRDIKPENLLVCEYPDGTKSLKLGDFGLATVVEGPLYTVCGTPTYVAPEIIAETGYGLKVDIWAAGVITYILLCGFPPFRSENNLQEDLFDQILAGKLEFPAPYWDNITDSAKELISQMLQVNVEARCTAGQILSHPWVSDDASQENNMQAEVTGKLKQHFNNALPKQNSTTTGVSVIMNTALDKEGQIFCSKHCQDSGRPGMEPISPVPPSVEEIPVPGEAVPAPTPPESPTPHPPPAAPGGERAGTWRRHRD

[5] = target: Mitogen-activated protein kinase kinase kinase 11 (Homo sapiens) (UniProt Q16584); experiment: Inhibition of human MAP3K11 at 1.82 nM by HotSpot assay relative to control
[6] = target: T2, Serine/threonine-protein kinase 4 (Homo sapiens) (UniProt Q13043); experiment: Inhibition of human STK4 at 1.82 nM by HotSpot assay relative to control
T2 sequence (whole entry): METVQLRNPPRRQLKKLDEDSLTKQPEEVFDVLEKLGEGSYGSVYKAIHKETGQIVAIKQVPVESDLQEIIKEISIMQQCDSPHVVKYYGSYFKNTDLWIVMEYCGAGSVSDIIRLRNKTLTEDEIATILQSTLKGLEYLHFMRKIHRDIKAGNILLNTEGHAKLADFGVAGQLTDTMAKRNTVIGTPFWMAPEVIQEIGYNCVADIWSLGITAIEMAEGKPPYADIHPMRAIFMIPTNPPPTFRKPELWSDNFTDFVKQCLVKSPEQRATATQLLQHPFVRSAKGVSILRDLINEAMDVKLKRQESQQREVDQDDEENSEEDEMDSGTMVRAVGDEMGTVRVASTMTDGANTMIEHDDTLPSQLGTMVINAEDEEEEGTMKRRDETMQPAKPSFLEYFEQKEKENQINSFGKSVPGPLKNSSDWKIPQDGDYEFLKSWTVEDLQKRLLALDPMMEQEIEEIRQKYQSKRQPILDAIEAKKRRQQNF

[7] = target: T3, Serine/threonine-protein kinase 3 (Homo sapiens) (UniProt Q13188); experiment: Inhibition of human STK3 at 1.82 nM by HotSpot assay relative to control
T3 sequence (whole entry): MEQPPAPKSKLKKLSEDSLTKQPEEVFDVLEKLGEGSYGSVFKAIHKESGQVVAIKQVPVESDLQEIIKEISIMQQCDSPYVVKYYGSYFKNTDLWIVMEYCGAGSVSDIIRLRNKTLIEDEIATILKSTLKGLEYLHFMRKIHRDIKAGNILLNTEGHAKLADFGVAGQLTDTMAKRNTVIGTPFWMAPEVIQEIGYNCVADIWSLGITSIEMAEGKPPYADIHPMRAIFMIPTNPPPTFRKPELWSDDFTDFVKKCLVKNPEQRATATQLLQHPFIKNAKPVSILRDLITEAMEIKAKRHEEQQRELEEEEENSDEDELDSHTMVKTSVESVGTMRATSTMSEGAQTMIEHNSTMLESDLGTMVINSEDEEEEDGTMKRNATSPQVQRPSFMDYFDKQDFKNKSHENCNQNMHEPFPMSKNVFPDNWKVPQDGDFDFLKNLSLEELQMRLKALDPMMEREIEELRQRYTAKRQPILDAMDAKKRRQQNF

[8] = target: Serine/threonine-protein kinase PAK 1 (Homo sapiens) (UniProt Q13153); experiment: Inhibition of human PAK1 at 1.82 nM by HotSpot assay relative to control
[9] = target: T4, Inhibitor of nuclear factor kappa-B kinase subunit epsilon (Homo sapiens) (UniProt Q14164); conditions: dose 1.82 nM
T4 sequence (whole entry): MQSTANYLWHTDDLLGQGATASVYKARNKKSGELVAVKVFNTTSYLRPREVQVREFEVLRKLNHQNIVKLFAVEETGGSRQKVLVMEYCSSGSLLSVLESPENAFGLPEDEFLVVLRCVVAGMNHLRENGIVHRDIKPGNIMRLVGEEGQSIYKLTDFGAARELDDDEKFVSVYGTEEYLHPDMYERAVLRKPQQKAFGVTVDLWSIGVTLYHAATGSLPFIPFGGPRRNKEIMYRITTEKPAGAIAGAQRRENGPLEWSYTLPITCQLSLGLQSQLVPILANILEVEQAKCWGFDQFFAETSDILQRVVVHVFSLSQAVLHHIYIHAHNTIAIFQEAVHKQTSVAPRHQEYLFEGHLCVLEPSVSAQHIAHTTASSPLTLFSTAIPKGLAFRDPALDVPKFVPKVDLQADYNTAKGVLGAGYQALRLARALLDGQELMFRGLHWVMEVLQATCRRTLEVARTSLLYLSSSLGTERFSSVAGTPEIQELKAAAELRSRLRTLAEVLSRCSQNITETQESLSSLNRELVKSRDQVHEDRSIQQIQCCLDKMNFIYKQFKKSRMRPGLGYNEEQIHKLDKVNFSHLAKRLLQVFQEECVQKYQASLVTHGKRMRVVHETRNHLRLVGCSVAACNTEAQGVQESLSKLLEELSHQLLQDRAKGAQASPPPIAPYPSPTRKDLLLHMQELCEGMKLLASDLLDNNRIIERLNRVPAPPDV
Description: Inhibition of human IKKe at 1.82 nM by HotSpot assay relative to control

Chain of Homeodomain-interacting protein kinase 1 (Homo sapiens) (Q86Z02 whole entry, looked up): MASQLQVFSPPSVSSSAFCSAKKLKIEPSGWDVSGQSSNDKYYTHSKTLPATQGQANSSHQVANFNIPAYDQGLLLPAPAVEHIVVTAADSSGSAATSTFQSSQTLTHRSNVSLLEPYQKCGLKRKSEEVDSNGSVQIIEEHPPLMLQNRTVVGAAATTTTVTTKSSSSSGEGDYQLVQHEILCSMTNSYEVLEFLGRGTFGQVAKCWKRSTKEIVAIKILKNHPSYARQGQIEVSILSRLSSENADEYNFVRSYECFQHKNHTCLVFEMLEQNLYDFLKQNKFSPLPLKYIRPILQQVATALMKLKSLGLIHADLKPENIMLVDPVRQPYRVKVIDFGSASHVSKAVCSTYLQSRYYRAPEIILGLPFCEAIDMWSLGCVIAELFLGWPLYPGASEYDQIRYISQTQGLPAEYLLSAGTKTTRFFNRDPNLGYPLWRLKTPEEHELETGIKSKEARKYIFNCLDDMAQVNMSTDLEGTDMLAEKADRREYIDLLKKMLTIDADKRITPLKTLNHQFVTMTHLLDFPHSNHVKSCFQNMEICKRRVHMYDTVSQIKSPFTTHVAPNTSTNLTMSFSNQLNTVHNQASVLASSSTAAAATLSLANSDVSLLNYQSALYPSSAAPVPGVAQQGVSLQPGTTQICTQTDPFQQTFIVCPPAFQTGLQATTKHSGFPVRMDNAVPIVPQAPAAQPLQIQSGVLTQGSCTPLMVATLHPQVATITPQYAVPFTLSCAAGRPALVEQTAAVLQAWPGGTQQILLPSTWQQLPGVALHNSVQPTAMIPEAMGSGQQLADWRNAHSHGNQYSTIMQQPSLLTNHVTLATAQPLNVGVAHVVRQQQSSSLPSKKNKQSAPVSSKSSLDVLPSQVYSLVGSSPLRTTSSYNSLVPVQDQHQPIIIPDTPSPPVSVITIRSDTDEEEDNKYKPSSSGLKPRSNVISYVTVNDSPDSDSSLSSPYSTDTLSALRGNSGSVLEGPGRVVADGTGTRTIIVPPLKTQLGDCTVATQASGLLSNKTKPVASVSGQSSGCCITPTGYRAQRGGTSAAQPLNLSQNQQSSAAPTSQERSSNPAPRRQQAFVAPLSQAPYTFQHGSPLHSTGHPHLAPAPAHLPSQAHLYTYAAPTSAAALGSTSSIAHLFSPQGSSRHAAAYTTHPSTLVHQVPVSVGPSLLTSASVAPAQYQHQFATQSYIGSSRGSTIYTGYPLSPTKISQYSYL
Chain of Serine/threonine-protein kinase B-raf (Homo sapiens) (P15056 whole entry): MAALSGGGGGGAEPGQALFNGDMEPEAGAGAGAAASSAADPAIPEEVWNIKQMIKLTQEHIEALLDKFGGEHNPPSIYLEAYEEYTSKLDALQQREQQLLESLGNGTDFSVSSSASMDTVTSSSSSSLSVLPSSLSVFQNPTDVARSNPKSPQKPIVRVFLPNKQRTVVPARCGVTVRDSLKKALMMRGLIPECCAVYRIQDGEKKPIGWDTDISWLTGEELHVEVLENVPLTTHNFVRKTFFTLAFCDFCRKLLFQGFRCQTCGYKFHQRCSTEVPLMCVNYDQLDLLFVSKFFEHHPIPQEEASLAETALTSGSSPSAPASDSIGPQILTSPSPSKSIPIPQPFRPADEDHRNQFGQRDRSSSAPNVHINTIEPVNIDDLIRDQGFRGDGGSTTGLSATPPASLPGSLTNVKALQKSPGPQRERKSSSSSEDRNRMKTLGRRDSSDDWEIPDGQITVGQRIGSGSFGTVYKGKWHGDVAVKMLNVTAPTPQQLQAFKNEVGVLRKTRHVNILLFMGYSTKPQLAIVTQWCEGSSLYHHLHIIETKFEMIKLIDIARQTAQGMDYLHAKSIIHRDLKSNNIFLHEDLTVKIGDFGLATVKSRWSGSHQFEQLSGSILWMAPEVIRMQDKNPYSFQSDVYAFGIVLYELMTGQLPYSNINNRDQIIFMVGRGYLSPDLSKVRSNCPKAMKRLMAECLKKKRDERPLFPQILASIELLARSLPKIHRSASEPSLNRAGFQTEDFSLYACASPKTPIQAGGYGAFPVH
Chain of Mitogen-activated protein kinase kinase kinase 10 (Homo sapiens) (Q02779 whole entry, looked up): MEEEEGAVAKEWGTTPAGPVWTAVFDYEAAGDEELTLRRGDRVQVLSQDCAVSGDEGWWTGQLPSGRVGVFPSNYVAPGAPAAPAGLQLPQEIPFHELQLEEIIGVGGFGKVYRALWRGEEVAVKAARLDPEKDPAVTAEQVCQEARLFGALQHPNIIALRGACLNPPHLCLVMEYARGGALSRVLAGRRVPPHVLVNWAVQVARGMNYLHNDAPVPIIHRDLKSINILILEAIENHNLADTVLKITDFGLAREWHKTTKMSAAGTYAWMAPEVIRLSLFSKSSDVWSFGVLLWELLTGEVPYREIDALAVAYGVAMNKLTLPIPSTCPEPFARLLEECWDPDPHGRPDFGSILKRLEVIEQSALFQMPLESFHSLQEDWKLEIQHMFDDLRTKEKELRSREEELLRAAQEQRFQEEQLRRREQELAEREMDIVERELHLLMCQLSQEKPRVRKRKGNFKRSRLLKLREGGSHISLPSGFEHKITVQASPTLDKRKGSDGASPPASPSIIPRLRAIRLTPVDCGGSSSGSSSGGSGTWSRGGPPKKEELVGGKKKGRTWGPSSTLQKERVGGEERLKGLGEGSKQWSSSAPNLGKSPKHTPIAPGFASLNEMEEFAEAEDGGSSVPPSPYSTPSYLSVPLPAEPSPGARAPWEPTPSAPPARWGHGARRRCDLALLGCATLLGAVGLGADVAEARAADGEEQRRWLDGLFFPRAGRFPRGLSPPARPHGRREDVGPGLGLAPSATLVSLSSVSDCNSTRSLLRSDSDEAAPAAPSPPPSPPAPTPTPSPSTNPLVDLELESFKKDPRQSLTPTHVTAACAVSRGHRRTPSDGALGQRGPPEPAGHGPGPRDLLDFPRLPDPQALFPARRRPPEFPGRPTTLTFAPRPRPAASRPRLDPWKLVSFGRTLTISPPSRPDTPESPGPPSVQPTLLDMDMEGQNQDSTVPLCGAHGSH
Chain of Mitogen-activated protein kinase kinase kinase 11 (Homo sapiens) (Q16584 whole entry, looked up): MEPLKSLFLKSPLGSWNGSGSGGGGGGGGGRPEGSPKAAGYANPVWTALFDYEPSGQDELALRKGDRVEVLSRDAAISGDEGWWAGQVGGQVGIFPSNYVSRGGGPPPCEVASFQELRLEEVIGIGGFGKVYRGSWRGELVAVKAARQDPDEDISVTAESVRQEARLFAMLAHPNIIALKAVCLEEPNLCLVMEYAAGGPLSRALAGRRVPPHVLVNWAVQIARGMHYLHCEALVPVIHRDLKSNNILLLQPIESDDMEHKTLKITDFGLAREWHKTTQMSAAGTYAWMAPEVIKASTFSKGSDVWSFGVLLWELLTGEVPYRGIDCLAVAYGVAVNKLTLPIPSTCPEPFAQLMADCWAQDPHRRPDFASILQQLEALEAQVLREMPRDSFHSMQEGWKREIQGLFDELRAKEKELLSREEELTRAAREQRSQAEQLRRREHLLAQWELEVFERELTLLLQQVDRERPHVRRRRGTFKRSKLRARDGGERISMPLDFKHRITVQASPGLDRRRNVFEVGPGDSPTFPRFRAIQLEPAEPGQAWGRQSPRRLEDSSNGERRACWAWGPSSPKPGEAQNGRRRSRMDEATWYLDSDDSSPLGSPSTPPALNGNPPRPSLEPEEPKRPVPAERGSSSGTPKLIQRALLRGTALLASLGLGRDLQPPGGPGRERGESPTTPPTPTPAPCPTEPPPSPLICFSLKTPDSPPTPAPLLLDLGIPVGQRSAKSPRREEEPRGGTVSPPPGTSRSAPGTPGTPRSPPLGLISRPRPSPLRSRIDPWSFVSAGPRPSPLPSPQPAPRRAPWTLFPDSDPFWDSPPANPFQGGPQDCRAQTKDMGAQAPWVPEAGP
Chain of Serine/threonine-protein kinase PAK 1 (Homo sapiens) (Q13153 whole entry): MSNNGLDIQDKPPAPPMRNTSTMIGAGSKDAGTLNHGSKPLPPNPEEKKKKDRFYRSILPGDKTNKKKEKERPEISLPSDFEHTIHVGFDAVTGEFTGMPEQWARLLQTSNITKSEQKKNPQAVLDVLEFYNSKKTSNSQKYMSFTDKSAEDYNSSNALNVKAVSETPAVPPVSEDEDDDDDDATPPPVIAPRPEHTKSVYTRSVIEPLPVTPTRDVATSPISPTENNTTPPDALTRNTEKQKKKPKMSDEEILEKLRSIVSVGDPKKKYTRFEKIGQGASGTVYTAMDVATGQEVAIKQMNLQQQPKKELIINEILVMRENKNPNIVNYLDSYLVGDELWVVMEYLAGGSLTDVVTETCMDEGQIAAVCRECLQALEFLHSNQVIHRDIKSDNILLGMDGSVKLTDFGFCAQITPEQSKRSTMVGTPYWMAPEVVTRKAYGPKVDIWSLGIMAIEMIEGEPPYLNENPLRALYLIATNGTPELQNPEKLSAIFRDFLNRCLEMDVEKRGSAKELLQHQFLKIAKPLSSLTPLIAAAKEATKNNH

Row | inhibition [1] [%] | inhibition [2] [%] | inhibition [3] [%] | inhibition [4] [%] | inhibition [5] [%] | inhibition [6] [%] | inhibition [7] [%] | inhibition [8] [%] | inhibition [9] [%] | Structure (SMILES)
1 | -4.32 | -0.06 | – | – | – | – | – | – | – | C[C@]1(O)C[C@@H](c2nc(-c3ccc4ccc(-c5ccccc5)nc4c3)c3c(N)nccn32)C1
2 | – | – | 7.49 | 3.94 | 2.47 | 9.85 | 1.56 | 1.83 | 5.87 | C[C@@]1(C(=O)Nc2ccc(F)nc2)CCCN1c1nc(Nc2cc(C3CC3)n[nH]2)c2cccn2n1
